# In US10869931B2, “Polyethylene glycol-modified angiogenesis inhibitor HM-1 and application thereof” (NANJING ANJI BIOLOGICAL TECHNOLOGY CO.,LTD, priority 2016, dated 2020):
# Marks after values point to notes of the source that are not given here. Where no end group is shown, it is not given here.
# Experiments:
# [1] = test system: Breast cancer tumor cells; assay: MTT proliferation inhibition, breast cancer cells; format: cell-based, human; design: concentration or dose not given beside the values; details: 48 h
# Procedure, shortened: (§1)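 Tumour cells plated at 2×10^4 cells/mL, attached overnight, then exposed to dilutions of mPEG-HM-1 for 48 h at 37 °C, 5% CO2. MTT added 4 h, formazan dissolved in DMSO, absorbance 570/630 nm; growth inhibition = 1 − treated/untreated, three independent repeats, mean±SD.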
# [2] = test system: collagen induced arthritis (CIA) in DBA/1 mice; assay: Collagen-induced mouse arthritis (CIA) model; format: in vivo; details: 10 mg/kg subcutaneous from day 30 of modeling, CIA DBA/1 mice; for Clinical score: maximum score 16
# [3] = test system: Pancreatic cancer tumor cells; assay: MTT proliferation inhibition, pancreatic cancer cells; format: cell-based, human; design: concentration or dose not given beside the values; details: 48 h
# Procedure, shortened: as §1
# sarcoma tumor cells = assay: MTT proliferation inhibition, sarcoma cells; format: cell-based, human; design: concentration or dose not given beside the values; details: 48 h
# Procedure, shortened: as §1
# [4] = test system: retinal neovascular clusters in OIR C57/B16 mice; assay: Retinal blood vessels in OIR mice; format: in vivo, mouse; details: for Neovascular clusters area: 25 μg intravitreal injection on day 13, retina evaluated on day 17; for Inhibition rate: 25 μg intravitreal, neovascular clusters area vs control, day 17
# Procedure, shortened: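 C57/B16 pups and mothers were held in 75% oxygen from postnatal day 7 to 12, then returned to room air. On day 13 the PEGylated HM-1 conjugates or saline were given by intravitreal injection; on day 17 retinal vessels were assessed after intracardiac Texas Red-tomato lectin, circulated 5 min.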
# [5] = test system: choroidal neovascularization in BN rats; assay: Laser-induced choroidal neovascularization in BN rats (FFA); format: in vivo, rat; details: 25 μg intravitreally once daily for 1 week (Table 53)
# Procedure, shortened: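 Male BN rats (6–8 weeks) received 8 laser photocoagulation spots per eye around the optic disc (647.1 nm, 350 mW, 50 μm, 0.05 s). Confirmed models, 5 per group, were given saline or PEG-modified HM-1 intravitreally once daily for 1 week. FFA was done 3, 7, 14 and 28 days after dosing.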
# Lung cancer tumor cells = assay: MTT proliferation inhibition, lung cancer cells; format: cell-based, human; design: concentration or dose not given beside the values; details: 48 h
# Procedure, shortened: as §1
# [6] = Day 3 after administration, total spots 290-296 by table
# [7] = Day 7, total spots 182-188 by table
# [8] = Day 14, total spots 132-138 by table
# [9] = Day 28, total spots 67-71 by table
Substance,rate of growth inhibition [1],Joint swelling [2],Left and right paw swelling [2],Clinical score [2],rate of growth inhibition [3],rate of growth inhibition (sarcoma tumor cells),Neovascular clusters area [4],Inhibition rate [4],CNV Incidence rate ([5]; Day 3 after administration),"leakage Spots # [5, 6]",CNV Incidence rate ([5]; Day 7),"leakage Spots # [5, 7]",CNV Incidence rate ([5]; Day 14),"leakage Spots # [5, 8]",CNV Incidence rate ([5]; Day 28),"leakage Spots # [5, 9]",rate of growth inhibition (Lung cancer tumor cells)
mPEG-bALD5k-Arg-Gly-Ala-Asp-Arg-Ala-Gly-Gly-Gly-Gly-Arg-Gly-Asp ({mPEG‑bALD 5 kDa}-RGADRAGGGGRGD) [mPEG-bALD5k-HM-1],50.02 ± 10.47%,0.73 ± 0.15 mm,0.74 ± 0.13 mm,8.98 ± 1.25,53.14 ± 10.34%,41.42 ± 10.03%,0.108 ± 0.008 mm^2,51.17%**,55.29%,162,52.43%,97,47.10%,65,46.38%,32,47.56 ± 12.22%
mPEG2-NHS5k-Arg-Gly-Ala-Asp-Arg-Ala-Gly-Gly-Gly-Gly-Arg-Gly-Asp ({mPEG2‑NHS 5 kDa}-RGADRAGGGGRGD) [mPEG2-NHS5k-HM-1],45.69 ± 12.10%,0.78 ± 0.12 mm,0.76 ± 0.11 mm,9.01 ± 1.28,46.58 ± 13.12%,38.41 ± 11.10%,0.119 ± 0.007 mm^2,46.35%*,56.12%,165,55.49%,101,45.99%,63,48.53%,33,42.83 ± 12.58%
mPEG-ALD5k-Arg-Gly-Ala-Asp-Arg-Ala-Gly-Gly-Gly-Gly-Arg-Gly-Asp ({mPEG‑ALD 5 kDa}-RGADRAGGGGRGD) [mPEG-ALD5k-HM-1],49.22 ± 11.87%,0.74 ± 0.14 mm,0.72 ± 0.15 mm,8.93 ± 1.27,52.19 ± 12.64%,38.41 ± 12.53%,0.108 ± 0.006 mm^2,50.98%**,55.17%,160,52.75%,96,46.97%,62,46.48%,33,45.76 ± 13.20%
